Measured values published in patent publication US20260259229A1, “FATIGUE SYNDROME SIGNATURES AND METHODS OF TREATMENT” (The Board of Trustees of the Leland Stanford Junior …, priority 2023, published 2026).
“Also recorded” adds a separate entry of the source.

Tests used:
CD4 T cells = assay: Screening for reversal of oxidative damage: PBMCs treated with ROS inducer, then candidate drug; lipid peroxidation by flow cytometry (FIG. 9B, 9F); format: cell-based, human; conditions: drug after ROS inducer, versus positive control cells treated only with ROS inducer (FIG. 9F)
Protocol: FIGS. 9A-9F. Screening assays. (A) To identify drugs that can protect immune cell populations from oxidative stress, PBMCs are treated with candidate drugs (e.g., liproxstatin-1, metformin) for an hour, before treatment with ROS inducer (e.g., cumene […], tert-butyl hydroperoxide). By subsequently labeling cells with metabolic dyes to track oxidative stress parameters, comparisons with immune cells only treated with ROS inducer enable quantification of drugs capacity to protect against oxidative stress and damage in immune cell populations. (B) To identify drugs that can reverse oxidative stress and damage in immune cell populations, PBMCs are treated first with a ROS inducer for 30 minutes to an hour, before subsequent treatment with candidate drugs. By labeling with metabolic dyes and comparing the drug treated immune cell populations to those treated only with ROS inducer, we can quantify the capacity for drugs to reverse oxidative stress and damage in PBMCs. (C) To link these metabolic changes with immune cell function, control and disease PBMCs (e.g., from fatigue-syndrome patients) are labeled with proliferation dyes, upon which T cells are stimulated with anti-CD3/anti-CD28 antibodies and IL-2. By treating PBMCs with drugs identified from methodologies described in 9A and 9B, we can assess how metabolic changes to oxidative stress levels in drugs also modulate functional capacity of donor T cells to proliferate. While flowchart is specific to T cells (e.g., anti-CD3/anti-CD28 stimulation), the core methodology is applicable to other immune cell populations, where changes in immune cells capacity to proliferate can be assessed upon treatment with candidate drugs. (D) Application of methodology to a specific CFS patient is shown, where PBMCs treated with ROS-modulating drugs including N-acetylcysteine, metformin, and liproxstatin-1. Flow cytometry data is shown for CD4 T cells, where the x-axis corresponds to CellTraceViolet (proliferation dye) staining and the y-axis corresponds to total ROS levels. […] (E) Proportion of proliferating T cells are shown for a specific CFS patient (patient 27) along with their […] and […]. […] Lipid peroxidation changes are shown, where higher oxidative damage corresponds to a lower value on the y-axis. Identified drugs include N-acetylcysteine (NAC), metformin, liproxstatin-1, nicotinamide mononucleotide (NMN), oxaloacetate, MitoQ, Abilify, Colchicine, Naltrexone. Although this methodology is shown for CD4 T cells, it is broadly applicable to other immune cell populations (e.g., myeloid cells).
Staining: To stain for mitochondrial parameters, cells were stained with BioTracker ATP-Red Live Cell Dye (Sigma Aldrich), MitoTracker Deep Red FM (ThermoFisher), MitoSpy Green FM (BioLegend). To stain for ROS levels, cells were stained with DCFDA cellular ROS assay kit (abcam), MitoSOX Red Mitochondrial Superoxide detector (ThermoFisher). To stain for glutathione clearance and oxidative damage, cells were stained with ThiolTracker Violet (ThermoFisher), HCS LipidTOX Green Neutral Lipid Stain (ThermoFisher) for lipid droplet levels, and Image-iT™ Lipid Peroxidation Kit, ratiometric lipid peroxidation sensor (ThermoFisher). To capture viability, cells were stained with LIVE/DEAD Fixable Far Red Dead Cell Stain (ThermoFisher).

[1] = test system: CD4 and CD8 T cells (donor PBMCs); assay: T cell proliferation assay: CellTrace Violet dye dilution, PBMCs stimulated with anti-CD3/anti-CD28 antibodies and IL-2, treated with ROS-modulating drugs; format: cell-based, human; conditions: for proportion of proliferating T cells, HC and ME-CFS PBMCs (FIG. 15): 100 μM N-acetylcysteine, liproxstatin-1, 5-days post activation; for effect in reducing T cell hyperproliferation in ME/CFS donors: female ME/CFS donors, p: NAC CD4 0.82, CD8 0.7, metformin CD4 0.041, CD8 0.39, liproxstatin-1 CD4 0.31, CD8 0.18; for reduction in T cell proliferation upon treatment, male ME/CFS: male ME/CFS PBMCs (FIG. 17: 100 μM N-acetylcysteine, 10 μM metformin, 1 μM liproxstatin-1); for proportion of proliferating CD4 T cells upon stimulation: patient 27 (ME/CFS) PBMCs treated at day 0, read 5 days after stimulation, untreated 79.3%; for effect in lowering T cell proliferation in LC female donors: female LC PBMCs (FIG. 16)
patients = conditions: double-blinded phase III studies on >1300 patients, especially among female patients; cited from earlier work

O=C1CCc2ccc(OCCCCN3CCN(c4cccc(Cl)c4Cl)CC3)cc2N1 [Abilify]
capacity for reversing oxidative damage (lipid peroxidation changes) (CD4 T cells): reversing oxidative damage

COc1cc2c(c(OC)c1OC)-c1ccc(OC)c(=O)cc1[C@@H](NC(C)=O)CC2 [Colchicine]
capacity for reversing oxidative damage (lipid peroxidation changes) (CD4 T cells): reversing oxidative damage

COC1=C(OC)C(=O)C(CCCCCCCCCC[P+](c2ccccc2)(c2ccccc2)c2ccccc2)=C(C)C1=O [MitoQ]
capacity for reversing oxidative damage (lipid peroxidation changes) (CD4 T cells): reversing oxidative damage

CC(=O)N[C@@H](CS)C(=O)O [NAC, N-acetylcysteine]
proportion of proliferating T cells, HC and ME-CFS PBMCs (FIG. 15) [1]: no difference or decrease
effect in reducing T cell hyperproliferation in ME/CFS donors ([1]; 5 days post stimulation): did not have any effect
reduction in T cell proliferation upon treatment, male ME/CFS [1]: did not observe any reduction
proportion of proliferating CD4 T cells upon stimulation [1]: 54.3%
capacity for reversing oxidative damage (lipid peroxidation changes) (CD4 T cells): reversing oxidative damage

O=C1CC[C@@]2(O)[C@H]3Cc4ccc(O)c5c4[C@@]2(CCN3CC2CC2)[C@H]1O5 [Naltrexone]
capacity for reversing oxidative damage (lipid peroxidation changes) (CD4 T cells): reversing oxidative damage

Clc1cccc(CN=C2Nc3ccccc3NC23CCNCC3)c1 [liproxstatin-1]
proportion of proliferating T cells, HC and ME-CFS PBMCs (FIG. 15) [1]: selectively lowers proliferation in ME-CFS and not the HC donors
effect in lowering T cell proliferation in LC female donors ([1]; 5 days post stimulation): did not show a statistically significant effect
effect in reducing T cell hyperproliferation in ME/CFS donors ([1]; 5 days post stimulation): did not show a statistically significant effect
reduction in T cell proliferation upon treatment, male ME/CFS [1]: did not observe any reduction
proportion of proliferating CD4 T cells upon stimulation [1]: 64.5%
capacity for reversing oxidative damage (lipid peroxidation changes) (CD4 T cells): reversing oxidative damage

CN(C)C(=N)N=C(N)N [metformin]
effect on T cell proliferation in healthy controls ([1]; HC donors, 5 days post stimulation, metformin CD4 p=1, CD8 p=0.69): no effect; also recorded: does not alter proliferation
average reduction of CD4 T cell proliferation ([1]; LC donor PBMCs, metformin treatment (10 μM, FIG. 16B), p=0.31): 5.2%
average reduction of CD8 T cell proliferation ([1]; LC donor PBMCs, metformin treatment (10 μM, FIG. 16B), p=0.42): 7.6%
effect in lowering T cell proliferation in LC female donors ([1]; 5 days post stimulation): smaller and non-statistically significant effect
effect in reducing T cell hyperproliferation in ME/CFS donors ([1]; 5 days post stimulation): statistically significant effect in reducing CD4 T cell hyperproliferation; also recorded: statistically significant reduction
reduction in T cell proliferation upon treatment, male ME/CFS [1]: did not observe any reduction
proportion of proliferating CD4 T cells upon stimulation [1]: 53.2%
reduction of Long COVID incidence (patients): 41%
capacity for reversing oxidative damage (lipid peroxidation changes) (CD4 T cells): reversing oxidative damage

NC(=O)c1ccc[n+]([C@@H]2O[C@H](COP(=O)([O-])O)[C@@H](O)[C@H]2O)c1 [nicotinamide mononucleotide]
capacity for reversing oxidative damage (lipid peroxidation changes) (CD4 T cells): reversing oxidative damage
